According to US20240246946A1, “MODULATORS OF TREX1” (Constellation Pharmaceuticals, Inc., priority 2021, published 2024):
Like-named read-outs stand apart in the source and are kept apart here.

Assays:
[1] = target: T1, full length mouse TREX1 (Mus musculus, UniProt Q91XB0); assay: mTREX1 Biochemical Assay (fluorescence, dsDNA substrate degradation)
T1 construct: N-terminally His-Tev tagged full length mouse TREX1; made in house; host or cells: E. coli
T1 sequence (Q91XB0 1-314): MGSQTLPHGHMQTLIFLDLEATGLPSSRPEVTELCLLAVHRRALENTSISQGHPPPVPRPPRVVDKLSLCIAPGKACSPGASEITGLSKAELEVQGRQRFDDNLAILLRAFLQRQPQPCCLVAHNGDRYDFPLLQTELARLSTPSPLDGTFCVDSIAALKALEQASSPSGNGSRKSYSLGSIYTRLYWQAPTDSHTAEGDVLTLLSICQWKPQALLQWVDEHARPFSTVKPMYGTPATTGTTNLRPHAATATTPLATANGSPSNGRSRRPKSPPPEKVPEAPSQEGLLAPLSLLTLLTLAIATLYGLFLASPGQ
Method in brief: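 Reaction run 18 h at 25° C. with 60 nM TEX615/quencher-labelled dsDNA and 6 pM mouse TREX1 in Tris buffer (pH 7.4, 5 mM MgCl2, 1.0% DMSO), enzyme having sat 4 h with compound across 10 concentrations. EDTA quench; substrate degradation measured as fluorescence increase.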

[2] = target: T2, full length human TREX1 (Homo sapiens, UniProt Q9NSU2); assay: hTREX1 Biochemical Assay (fluorescence, dsDNA substrate degradation)
T2 construct: N-terminally His-Tev tagged full length human TREX1; made in house; host or cells: E. coli
T2 sequence (Q9NSU2 1-314): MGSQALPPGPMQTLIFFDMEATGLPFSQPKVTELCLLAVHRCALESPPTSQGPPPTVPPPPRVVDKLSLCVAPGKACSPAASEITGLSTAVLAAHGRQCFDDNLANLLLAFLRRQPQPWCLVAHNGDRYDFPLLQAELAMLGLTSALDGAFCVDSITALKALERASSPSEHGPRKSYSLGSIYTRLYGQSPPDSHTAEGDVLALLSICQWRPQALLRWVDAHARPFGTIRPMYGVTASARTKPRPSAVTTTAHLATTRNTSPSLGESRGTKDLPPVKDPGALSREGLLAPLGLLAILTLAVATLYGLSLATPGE
Method in brief: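 Cleavage of 60 nM TEX615/quencher-labelled dsDNA in pH 7.4 Tris buffer with 5 mM MgCl2, 1.0% DMSO, run 18 hours at 25° C, EDTA-quenched; fluorescence read-out.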

[3] = biochemical, read-out: mTREX1 IC50
[4] = biochemical, read-out: hTREX1 IC50

Row | Structure (SMILES) | IC50 [1, 3] [nM] | IC50 [2, 4] [nM] | IC50 ([1]; mTREX1 IC50, biochemical) [nM] | IC50 ([2]; hTREX1 IC50, biochemical) [nM]
1 | CC(c1nc(C(=O)Nc2cnoc2)c(O)c(=O)n1C)C(c1cn[nH]c1)c1ccccc1C#N (single isomer, unassigned) [Example 12 D2E2] | > 10 | > 10 |  | 
2 | Cc1cn(C)nc1C(c1ccccc1C#N)C(C)c1nc(C(=O)Nc2cnoc2)c(O)c(=O)n1C (single isomer, unassigned) [Example 64 D1E1] | > 10 | < 1 |  | 
3 | Cc1nn(C)cc1C(c1ccccc1C#N)C(C)c1nc(C(=O)Nc2cnoc2)c(O)c(=O)n1C (single isomer, unassigned) [Example 3 D2E1] | > 10 | > 10 |  | 
4 | Cc1cnn(C)c1C(c1ccccc1C#N)C(C)c1nc(C(=O)Nc2cnoc2)c(O)c(=O)n1C (single isomer, unassigned) [Example 84 D1E2] | > 10 | > 10 |  | 
5 | CC(c1nc(C(=O)Nc2cnoc2)c(O)c(=O)n1C)C(c1cnn(C)c1)c1cccnc1C#N (single isomer, unassigned) [Example 7 D2E1] | > 10 | > 10 |  | 
6 | CC(c1nc(C(=O)Nc2cnoc2)c(O)c(=O)n1C)C(c1cnn(C)c1)c1cc(F)c(F)cc1Cl (single isomer, unassigned) [Example 28 D2E2] | > 10 | > 10 |  | 
7 | CC(c1nc(C(=O)Nc2cnoc2)c(O)c(=O)n1C)C(c1ccccc1C#N)c1ccnn1C (single isomer, unassigned) [Example 1 D2E1] | > 10 | > 10 |  | 
8 | Cc1nc(C)c(C(c2ccccc2C#N)C(C)c2nc(C(=O)Nc3cnoc3)c(O)c(=O)n2C)nc1C (single isomer, unassigned) [Example 122 D2E2] | > 10 | > 10 |  | 
9 | CC(c1nc(C(=O)Nc2cnoc2)c(O)c(=O)n1C)C(c1cnn(C)c1)c1ccncc1C#N (single isomer, unassigned) [Example 8 D2E1] | > 10 | > 10 |  | 
10 | CC(c1nc(C(=O)Nc2cnoc2)c(O)c(=O)n1C)C(c1cnn(CCN(C)C)c1)c1ccccc1C#N (single isomer, unassigned) [Example 33 D1E2] | > 10 | > 10 |  | 
11 | Cn1cc(C(c2ccccc2C#N)C(c2nc(C(=O)Nc3cnoc3)c(O)c(=O)n2C)C(F)(F)F)cn1 (single isomer, unassigned) [Example 40 D1E1] | > 10 | > 10 |  | 
12 | CCn1cc(C(c2ccc(F)cc2C#N)C(C)c2nc(C(=O)Nc3cnoc3)c(O)c(=O)n2C)cn1 (single isomer, unassigned) [Example 16 D2E1] | > 10 | > 10 |  | 
13 | Cc1nn(C)cc1C(c1cc(F)ccc1Cl)C(C)c1nc(C(=O)Nc2cnoc2)c(O)c(=O)n1C (single isomer, unassigned) [Example 62 D2E1] | > 10 | > 10 |  | 
14 | CC(c1nc(C(=O)Nc2cnoc2)c(O)c(=O)n1C)C(c1cnn(C)c1)c1c(C#N)cccc1C#N (single isomer, unassigned) [Example 19 D2E1] | > 10 | > 10 |  | 
15 | CC(c1nc(C(=O)Nc2cnoc2)c(O)c(=O)n1C)C(c1cnn(C)c1)c1c(C#N)cccc1C#N (single isomer, unassigned) [Example 19 D1E1] | > 10 | > 10 |  | 
16 | CC(c1nc(C(=O)Nc2cnoc2)c(O)c(=O)n1C)C(c1cnccn1)c1ccccc1C#N (single isomer, unassigned) [Example 66 D2E2] | > 10 | > 10 |  | 
17 | CC(c1nc(C(=O)Nc2cnoc2)c(O)c(=O)n1C)C(c1cnn(C)c1)c1cc(F)c(F)cc1C#N (single isomer, unassigned) [Example 25 D1E2] | > 10 | > 10 |  | 
18 | Cc1ccnn1C(c1ccccc1Cl)C(C)c1nc(C(=O)Nc2cnoc2)c(O)c(=O)n1C (single isomer, unassigned) [Example 54 D1E1] |  |  | 1 to 10 | 1 to 10
19 | COCCn1cc(C(c2cc(F)c(F)cc2Cl)C(C)c2nc(C(=O)Nc3cnoc3)c(O)c(=O)n2C)cn1 (single isomer, unassigned) [Example 73 D2E1] | > 10 | > 10 |  | 
